Format in all cases: cell-based
One data set deals with HIV-1 strain LAI. The experiment in a line: Cellular anti-HIV assay, MT4 cells, MTT read-out, wild type strain. On the procedure: The compounds of the present invention were examined for anti-viral activity in a cellular assay. […] The cellular assay was performed according to the following procedure. HIV- or mock-infected MT4 cells were incubated for five days in the presence of various concentrations of the inhibitor. At the end of the incubation period, all HIV-infected cells have been killed by the replicating virus in the control cultures in the absence of any inhibitor. Cell viability is measured by measuring the concentration of MTT, a yellow, water soluble tetrazolium dye that is converted to a purple, water insoluble formazan in the mitochondria of living cells only. Upon solubilization of the resulting formazan crystals with isopropanol, the absorbance of the solution is monitored at 540 nm. The values correlate directly to the number of living cells remaining in the culture at the completion of the five day incubation. The inhibitory activity of the compound was monitored on the virus-infected cells and was expressed as EC50 and EC90. These values represent the amount of the compound required to protect 50% and 90%, respectively, of the cells from the cytopathogenic effect of the virus. The toxicity of the compound was measured on the mock-infected cells and was expressed as CC50, which represents the concentration of compound required to inhibit the growth of the cells by 50%. The selectivity index (SI) (ratio CC50/EC50) is an indication of the selectivity of the anti-HIV activity of the inhibitor. Wherever results are reported as e.g. pEC50 or pCC50 values, the result is expressed as the negative logarithm of the result expressed as EC50 or CC50 respectively.

Another data set has as its system HIV strain A. The experiment in a line: Antiviral spectrum, clinically isolated mutant strain A. Conditions: FR=EC50(mutant strain)/EC50(HIV-1 strain LAI). On the procedure: (§1) HIV- or mock-infected MT4 cells were incubated for five days in the presence of various concentrations of the inhibitor. At the end of the incubation period, all HIV-infected cells have been killed by the replicating virus in the control cultures in the absence of any inhibitor. Cell viability is measured by measuring the concentration of MTT, a yellow, water soluble tetrazolium dye that is converted to a purple, water insoluble formazan in the mitochondria of living cells only. Upon solubilization of the resulting formazan crystals with isopropanol, the absorbance of the solution is monitored at 540 nm. The values correlate directly to the number of living cells remaining in the culture at the completion of the five day incubation. The inhibitory activity of the compound was monitored on the virus-infected cells and was expressed as EC50 and EC90. These values represent the amount of the compound required to protect 50% and 90%, respectively, of the cells from the cytopathogenic effect of the virus. The toxicity of the compound was measured on the mock-infected cells and was expressed as CC50, which represents the concentration of compound required to inhibit the growth of the cells by 50%. The selectivity index (SI) (ratio CC50/EC50) is an indication of the selectivity of the anti-HIV activity of the inhibitor. Wherever results are reported as e.g. pEC50 or pCC50 values, the result is expressed as the negative logarithm of the result expressed as EC50 or CC50 respectively.
(§2) Because of the increasing emergence of drug resistant HIV strains, the present compounds were tested for their potency against clinically isolated HIV strains harboring several mutations (Table 2 and 3). These mutations are associated with resistance to protease inhibitors and result in viruses that show various degrees of phenotypic cross-resistance to the currently commercially available drugs such as for instance saquinavir, ritonavir, nelfinavir, indinavir and amprenavir.
(§3) As a measure of the broad spectrum activity of the present compounds, the fold resistance (FR), defined as FR=EC50(mutant strain)/EC50(HIV-1 strain LAI), was determined.

The test system of another data set is HIV strain B. The data set can be described thus: Antiviral spectrum, clinically isolated mutant strain B. Conditions: FR=EC50(mutant strain)/EC50(HIV-1 strain LAI). On the procedure:
as §1, §2, §3

Another data set relates to HIV strain C. The experiment in a line: Antiviral spectrum, clinically isolated mutant strain C. The following applies: FR=EC50(mutant strain)/EC50(HIV-1 strain LAI). On the procedure:
as §1, §2, §3

Another data set has as its system HIV strain D. The data set can be described thus: Antiviral spectrum, clinically isolated mutant strain D. The following applies: FR=EC50(mutant strain)/EC50(HIV-1 strain LAI). On the procedure: as §1, §2, §3
The test system of a further data set is HIV strain E. The data set can be described thus: Antiviral spectrum, clinically isolated mutant strain E. Conditions: FR=EC50(mutant strain)/EC50(HIV-1 strain LAI). On the procedure:
as §1, §2, §3

In another data set the test system is HIV strain F. The experiment in a line: Antiviral spectrum, clinically isolated mutant strain F. The following applies: FR=EC50(mutant strain)/EC50(HIV-1 strain LAI). On the procedure:
as §1, §2, §3

Data set [1] can be described thus: Toxicity on mock-infected MT4 cells (MTT). The following applies: human. On the procedure: as §1, §3

The structures appear in SMILES notation. Where two headings read alike, the source gives them in different places.

As a reminder, the CC50 is the concentration giving 50% cytotoxicity. For the compound `COc1ccc(C=C2C(=O)Nc3ccc(S(=O)(=O)N(CC(C)C)CC(O)C(Cc4ccccc4)NC(=O)OC4COC5OCCC45)cc32)cc1` (stereo not drawn) [Compound 8, (1-Benzyl-2-hydroxy-3-{isobutyl-[3-(4-methoxy-benzylidene)-2-oxo-2,3-dihydro-1H-indole-5-sulfonyl]-amino}-propyl)-carbamic acid hexahydro-furo[2,3-b]furan-3-yl ester], the EC50 in the data set with HIV-1 strain LAI (Human immunodeficiency virus 1, 120 h, Table 1, MT4 cells, five days incubation, HIV-1 strain LAI, read-out: pEC50 (converted)) is 20 nM; in the data set on HIV-1 strain LAI (Human immunodeficiency virus 1, MT4, Table 3, wild type HIV-LAI strain, read-out: WT (pEC50) (converted)) it was 20 nM. The “A (FR towards mutant A)” value with HIV strain A is given as 1.7. Further, the “B (FR towards mutant B)” value in the data set with HIV strain B is given as 5.0. Also, the “C (FR towards mutant C)” value in the data set on HIV strain C amounted to 1.5. Further, in the data set on HIV strain D, the “D (FR towards mutant D)” value is 1.5. For the same compound, the “E (FR towards mutant E)” value in the data set on HIV strain E turned out to be 2.0. For the same compound, the “F (FR towards mutant F)” value in the data set with HIV strain F stood at 1.7. This compound showed a CC50 at 5 days in data set [1] of 63100 nM.

For the origin of these results see patent publication US7199148B2, “Broadspectrum substituted oxindole sulfonamide HIV protease inhibitors” (priority 2002, dated 2007).
